Measurements published in US20260137634A1, “USE OF STILBENE DERIVATIVE IN PREVENTION AND/OR TREATMENT OF ULCERS” (THEDERMA SHANGHAI CO., LTD., priority 2022, published 2026).

Columns and labels:
[1] = system: DB/DB male mouse diabetic foot ulcer model; test: Efficacy in DB/DB male mouse diabetic foot ulcer model after 10 days of treatment; format: in vivo; conditions: DB/DB male mice; for Ulcer healing rate / Ulcer area Day 10: 1 mg/mouse; for Ulcer healing rate: 2 times daily for 10 days, ** p<0.05 vs vehicle; for Ulcer healing rate / Ulcer area Day 10 / Ulcer area Day 0: n = 6; for Ulcer area Day 10: 50 μL applied to ulcer 2 times daily for 10 days; for Ulcer area Day 0: foot ulcer, Day 0 (baseline)
Method: Eighteen DB/DB male mice were randomly divided into 3 groups, i.e., a model group (propylene glycol vehicle group), a 2% indigo group (1 mg/mouse), and a 2% tapinarof group (1 mg/mouse).
Foot ulcer modeling: after the mouse was anesthetized, the foot was disinfected; a 4 mm×5 mm rectangular region was marked on the dorsum of the foot; and the skin and fascia were removed within the region.
Administration: on the dorsum of the foot of the mouse, 50 μL of the solution in each group was pipetted by using a pipettor and evenly applied to the ulcer part 2 times daily for 10 consecutive days, and the length and the width of the ulcer were recorded.
Statistical analysis was performed by using one-way ANOVA. As compared to the vehicle group, ** indicates p<0.05.

[2] = system: SD male rat oral ulcer model; test: Efficacy in SD male rat oral ulcer model after 7 days of treatment; format: in vivo; conditions: SD male rats; for Ulcer healing rate / Ulcer area Day 7: 1 mg/rat; for Ulcer healing rate: 2 times daily for 7 days; for Ulcer healing rate / Ulcer area Day 7 / Ulcer area Day 0: n = 6; for Ulcer area Day 7: 50 μL applied to ulcer 2 times daily for 7 days; for Ulcer area Day 0: glacial acetic acid oral ulcer, Day 0 (baseline)
Method: Eighteen SD male rats were randomly divided into 3 groups, i.e., a model group (propylene glycol vehicle group), a 2% indigo group (1 mg/rat), and a 2% tapinarof group (1 mg/rat). Oral ulcer modeling: a 1 cm×0.6 cm filter paper (soaked into a 60% glacial acetic acid solution) was placed on the labial mucosa of the alveolar bone beneath the lower incisor in a rat and maintained for 1 min. Administration: after the rats were anesthetized, 50 μL of the solution in each group was pipetted by using a pipettor and evenly applied to the ulcer part 2 times daily for 7 consecutive days. After each group was treated with glacial acetic acid, symptoms such as pseudomembrane covering, central depression, red and swollen edges, significant pain response after stimulation, etc. appeared, and after the administration was completed, various symptoms were relieved.

O=C1/C(=C2\Nc3ccccc3C2=O)Nc2ccccc21 [2% indigo, indigo, reference compound]
Ulcer healing rate [1]: 26% | Ulcer area Day 10 [1]: 13.30 mm^2 | Ulcer area Day 0 [1]: 17.99 mm^2 | Ulcer healing rate [2]: 52% | Ulcer area Day 7 [2]: 22.09 mm^2 | Ulcer area Day 0 [2]: 46.33 mm^2

CC(C)c1c(O)cc(/C=C/c2ccccc2)cc1O [2% tapinarof, tapinarof]
Ulcer healing rate [1]: 39%** | Ulcer area Day 10 [1]: 10.93 mm^2 | effect in mouse diabetic foot ulcer model (in words) ([1]; after 10 days of administration): significant inhibitory effect, which was superior to that of the 2% indigo group | Ulcer area Day 0 [1]: 18.19 mm^2 | Ulcer healing rate [2]: 58% | Ulcer area Day 7 [2]: 19.70 mm^2 | therapeutic effect in rat oral ulcer model (in words) ([2]; 7 days of treatment): good therapeutic effect, and its efficacy was superior to that of 2% indigo | Ulcer area Day 0 [2]: 46.90 mm^2
